Measurements taken from PubChem BioAssay AID1963449 (Molecular Pharmacology Branch, DTP, NCI, 2024).
“And” between values parts separate entries of the source, which are not always exact repeats. Equal entries are not always repeated.

System: 596521-263-R-J1-PDC complex spheroid growth
Assay: Anticancer human tumor 596521-263-R-J1-PDC patient-derived soft tissue sarcoma cell line growth inhibition [Asc]
Details: for viability, T/C: stronger effect = lower value
Outline: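 Tumor cells were grown as multicellular spheroids with stromal HUVEC and mesenchymal stem cells and treated singly or in combination. Concentrations fell in half-log steps from the clinical Cmax, or from 10 microM where none was known.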

[1] = curve of first compound, second compound 0.00949 µM
[2] = curve of first compound, second compound 0.03 µM
[3] = curve of first compound, second compound 0.0949 µM
[4] = curve of first compound, second compound 0.3 µM
[5] = curve of first compound, second compound 0.949 µM
[6] = curve of first compound, second compound 3 µM
[7] = second compound 0.00949 µM, first compound 0.0316 µM
[8] = second compound 0.00949 µM, first compound 0.1 µM
[9] = second compound 0.00949 µM, first compound 0.316 µM
[10] = second compound 0.00949 µM, first compound 1 µM
[11] = second compound 0.00949 µM, first compound 3.16 µM
[12] = second compound 0.00949 µM, first compound 10 µM
[13] = second compound 0.03 µM, first compound 0.0316 µM
[14] = second compound 0.03 µM, first compound 0.1 µM
[15] = second compound 0.03 µM, first compound 0.316 µM
[16] = second compound 0.03 µM, first compound 1 µM
[17] = second compound 0.03 µM, first compound 3.16 µM
[18] = second compound 0.03 µM, first compound 10 µM
[19] = second compound 0.0949 µM, first compound 0.0316 µM
[20] = second compound 0.0949 µM, first compound 0.1 µM
[21] = second compound 0.0949 µM, first compound 0.316 µM
[22] = second compound 0.0949 µM, first compound 1 µM
[23] = second compound 0.0949 µM, first compound 3.16 µM
[24] = second compound 0.0949 µM, first compound 10 µM
[25] = second compound 0.3 µM, first compound 0.0316 µM
[26] = second compound 0.3 µM, first compound 0.1 µM
[27] = second compound 0.3 µM, first compound 0.316 µM
[28] = second compound 0.3 µM, first compound 1 µM
[29] = second compound 0.3 µM, first compound 3.16 µM
[30] = second compound 0.3 µM, first compound 10 µM
[31] = second compound 0.949 µM, first compound 0.0316 µM
[32] = second compound 0.949 µM, first compound 0.1 µM
[33] = second compound 0.949 µM, first compound 0.316 µM
[34] = second compound 0.949 µM, first compound 1 µM
[35] = second compound 0.949 µM, first compound 3.16 µM
[36] = second compound 0.949 µM, first compound 10 µM
[37] = second compound 3 µM, first compound 0.0316 µM
[38] = second compound 3 µM, first compound 0.1 µM
[39] = second compound 3 µM, first compound 0.316 µM
[40] = second compound 3 µM, first compound 1 µM
[41] = second compound 3 µM, first compound 3.16 µM
[42] = second compound 3 µM, first compound 10 µM
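Also: spheroids exposed to compounds for 7 days.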

C=C(F)C(=O)N1CCN(c2nc(OCC3CCCN3C)nc3c2CCN(c2cccc4cccc(Cl)c24)C3)CC1CC#N (stereo not drawn) + CCN1C(C(=O)NC23CCC(C(=O)O)(CC2)CC3)C(c2cccc(Cl)c2F)C2(C(=O)Nc3cc(Cl)ccc32)C12CCCCC2
IC50 [1]: 5.24 µM
IC50 [2]: 5.11 µM
IC50 [3]: 5.18 µM
IC50 [4]: 5.11 µM
IC50 [5]: 4.73 µM
IC50 [6]: 4.53 µM
viability, T/C [7]: 106%
viability, T/C [8]: 102%
viability, T/C [9]: 91.2%
viability, T/C [10]: 104%
viability, T/C [11]: 88.7%
viability, T/C [12]: 0.73%
viability, T/C [13]: 101%
viability, T/C [14]: 90.4%
viability, T/C [15]: 97.5%
viability, T/C [16]: 97.3%
viability, T/C [17]: 85.3%
viability, T/C [18]: 0.62%
viability, T/C [19]: 94.3%
viability, T/C [20]: 96.4%
viability, T/C [21]: 106%
viability, T/C [22]: 101%
viability, T/C [23]: 86.1%
viability, T/C [24]: 1.83%
viability, T/C [25]: 98.7%
viability, T/C [26]: 107%
viability, T/C [27]: 101%
viability, T/C [28]: 100%
viability, T/C [29]: 83.6%
viability, T/C [30]: 2.96%
viability, T/C [31]: 109%
viability, T/C [32]: 97.9%
viability, T/C [33]: 108%
viability, T/C [34]: 105%
viability, T/C [35]: 75.3%
viability, T/C [36]: 2.73%
viability, T/C [37]: 97%
viability, T/C [38]: 98.6%
viability, T/C [39]: 102%
viability, T/C [40]: 80.2%
viability, T/C [41]: 75.5%
viability, T/C [42]: 2.66%

C#Cc1c(F)ccc2cc(O)cc(-c3ncc4c(N5CC6CCC(C5)N6)nc(OCC56CCCN5CC(F)C6)nc4c3F)c12 (stereo not drawn) + CNC(C)C(=O)NC1CN(S(=O)(=O)c2cccc(S(=O)(=O)N3CCC4CCC(C(=O)NC(c5ccccc5)c5ccccc5)N4C(=O)C(NC(=O)C(C)NC)C3)c2)CCC2CCC(C(=O)NC(c3ccccc3)c3ccccc3)N2C1=O
IC50 (curve of first compound, second compound 0.00316 µM): > 10 µM
IC50 (curve of first compound, second compound 0.01 µM): > 10 µM
IC50 (curve of first compound, second compound 0.0316 µM): > 10 µM
IC50 (curve of first compound, second compound 0.1 µM): > 10 µM
IC50 (curve of first compound, second compound 0.316 µM): > 10 µM
IC50 (curve of first compound, second compound 1 µM): > 10 µM
viability, T/C (second compound 0.00316 µM, first compound 0.0316 µM): 93.7%
viability, T/C (second compound 0.00316 µM, first compound 0.1 µM): 89.4%
viability, T/C (second compound 0.00316 µM, first compound 0.316 µM): 87.3%
viability, T/C (second compound 0.00316 µM, first compound 1 µM): 105%
viability, T/C (second compound 0.00316 µM, first compound 3.16 µM): 94.6%
viability, T/C (second compound 0.00316 µM, first compound 10 µM): 81.8%
viability, T/C (second compound 0.01 µM, first compound 0.0316 µM): 99.4%
viability, T/C (second compound 0.01 µM, first compound 0.1 µM): 106%
viability, T/C (second compound 0.01 µM, first compound 0.316 µM): 86.7%
viability, T/C (second compound 0.01 µM, first compound 1 µM): 92.9%
viability, T/C (second compound 0.01 µM, first compound 3.16 µM): 97.1%
viability, T/C (second compound 0.01 µM, first compound 10 µM): 64.4%
viability, T/C (second compound 0.0316 µM, first compound 0.0316 µM): 90.2%
viability, T/C (second compound 0.0316 µM, first compound 0.1 µM): 87.1%
viability, T/C (second compound 0.0316 µM, first compound 0.316 µM): 99.6%
viability, T/C (second compound 0.0316 µM, first compound 1 µM): 102%
viability, T/C (second compound 0.0316 µM, first compound 3.16 µM): 90.6%
viability, T/C (second compound 0.0316 µM, first compound 10 µM): 61.1%
viability, T/C (second compound 0.1 µM, first compound 0.0316 µM): 91.5%
viability, T/C (second compound 0.1 µM, first compound 0.1 µM): 70.6%
viability, T/C (second compound 0.1 µM, first compound 0.316 µM): 83.5%
viability, T/C (second compound 0.1 µM, first compound 1 µM): 80%
viability, T/C (second compound 0.1 µM, first compound 3.16 µM): 84%
viability, T/C (second compound 0.1 µM, first compound 10 µM): 72.3%
viability, T/C (second compound 0.316 µM, first compound 0.0316 µM): 80.3%
viability, T/C (second compound 0.316 µM, first compound 0.1 µM): 82.8%
viability, T/C (second compound 0.316 µM, first compound 0.316 µM): 91.2%
viability, T/C (second compound 0.316 µM, first compound 1 µM): 94.8%
viability, T/C (second compound 0.316 µM, first compound 3.16 µM): 78.7%
viability, T/C (second compound 0.316 µM, first compound 10 µM): 62.5%
viability, T/C (second compound 1 µM, first compound 0.0316 µM): 74.7%
viability, T/C (second compound 1 µM, first compound 0.1 µM): 74.5%
viability, T/C (second compound 1 µM, first compound 0.316 µM): 81.2%
viability, T/C (second compound 1 µM, first compound 1 µM): 92.6%
viability, T/C (second compound 1 µM, first compound 3.16 µM): 83.3%
viability, T/C (second compound 1 µM, first compound 10 µM): 58.7%

O=C(c1ccc(F)c(F)c1Nc1ccc(I)cc1F)N1CC(O)([C@@H]2CCCCN2)C1
viability, T/C (compound 0.00316 µM): 107% and 99.7% and 89.7%
viability, T/C (compound 0.01 µM): 95.2% and 94.7% and 92%
viability, T/C (compound 0.0316 µM): 98.4% and 88.8% and 92.9%
viability, T/C (compound 0.1 µM): 75.9% and 77.3% and 84.2%
viability, T/C (compound 0.316 µM): 50.1% and 56% and 54.9%
viability, T/C (compound 1 µM): 34.9% and 49.8% and 34%
IC50 (curve of compound): 0.314 µM and 0.867 µM and 0.412 µM

O=C(c1cc(Cc2n[nH]c(=O)c3ccccc23)ccc1F)N1CCN(C(=O)C2CC2)CC1 + CCN1C(C(=O)NC23CCC(C(=O)O)(CC2)CC3)C(c2cccc(Cl)c2F)C2(C(=O)Nc3cc(Cl)ccc32)C12CCCCC2
IC50 [1]: > 10 µM
IC50 [2]: > 10 µM
IC50 [3]: > 10 µM
IC50 [4]: > 10 µM
IC50 [5]: > 10 µM
IC50 [6]: > 10 µM
viability, T/C [7]: 101%
viability, T/C [8]: 87.5%
viability, T/C [9]: 95.5%
viability, T/C [10]: 95%
viability, T/C [11]: 88%
viability, T/C [12]: 67.5%
viability, T/C [13]: 101%
viability, T/C [14]: 102%
viability, T/C [15]: 97.6%
viability, T/C [16]: 93.3%
viability, T/C [17]: 88.4%
viability, T/C [18]: 64.3%
viability, T/C [19]: 101%
viability, T/C [20]: 93%
viability, T/C [21]: 108%
viability, T/C [22]: 104%
viability, T/C [23]: 90.6%
viability, T/C [24]: 58.6%
viability, T/C [25]: 95.8%
viability, T/C [26]: 104%
viability, T/C [27]: 107%
viability, T/C [28]: 96.8%
viability, T/C [29]: 96.9%
viability, T/C [30]: 68.4%
viability, T/C [31]: 104%
viability, T/C [32]: 89.5%
viability, T/C [33]: 96.3%
viability, T/C [34]: 91.2%
viability, T/C [35]: 75.5%
viability, T/C [36]: 66.3%
viability, T/C [37]: 75.2%
viability, T/C [38]: 67.3%
viability, T/C [39]: 74.2%
viability, T/C [40]: 73.1%
viability, T/C [41]: 72.5%
viability, T/C [42]: 64.8%
